{
  "source": "patent US4278762A",
  "about": "“Method for the quantitative determination of plasminogen activators” (Pentapharm AG, priority 1976, dated 1981)",
  "format_in_all_cases": "biochemical",
  "key": {"trypsin": {"target": "T1, trypsin (Bos taurus, UniProt P00760)", "T1 construct": "b360 concerns trypsin in duodenal juice", "T1 sequence (P00760 24-246)": "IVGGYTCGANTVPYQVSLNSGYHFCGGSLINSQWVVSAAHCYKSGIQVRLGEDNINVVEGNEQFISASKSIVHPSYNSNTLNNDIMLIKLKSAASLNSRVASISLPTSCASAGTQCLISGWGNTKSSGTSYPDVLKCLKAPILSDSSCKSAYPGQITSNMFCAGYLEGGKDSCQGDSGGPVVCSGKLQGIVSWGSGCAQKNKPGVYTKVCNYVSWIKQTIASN", "test": "Determination of trypsin in duodenal juice with substrate", "settings": "per ml of test sample; pH 8.4, ionic strength 0.30, 37° C., 405 nm", "description": "The determination of trypsin in duodenal juice can be carried out for instance as follows: 1.79 ml of tris-imidazole buffer having a pH of 8.4 and an ionic strength of 0.30 are mixed with 0.01 ml of duodenal juice at 37° C. in a measuring vessel. Thereafter, the mixture is rapidly mixed with 0.2 ml of a 2×10^-3 molar solution of a substrate of this invention. The quantity of p-nitroaniline released from the substrate by the action of trypsin is determined by measuring the change in the optical density Δ OD per minute at a wave length of 405 nm. The quantity of p-nitroaniline released per minute or the corresponding change in the optical density is proportional to the trypsin activity. When using the substrate prepared according to Example 10, i.e. N^α -Cbo-C.cyclohexylglycyl-Gly-Arg-pNA.HCl, trypsin can be determined for instance at concentrations as low as 0.01 NF unit per ml of test sample."}, "urokinase [1]": {"target": "T2, urokinase (Homo sapiens, UniProt P00749)", "T2 construct": "also urine of healthy test persons", "test": "Determination of urokinase concentration with substrate I (ΔOD versus urokinase quantity)", "settings": "ΔOD within 10 minutes", "description": "In the appended drawing the sole figure represents a graph in which the change in the optical density Δ OD caused by the hydrolytic action of various quantities of urokinase on substrate I within 10 minutes is plotted as a function of the urokinase quantity in a co-ordinate system. From this graph it can be seen that urokinase concentrations can be determined accurately in the range of 1 to 10 CTA/ml. In the determination of the urokinase content in the urine of 14 healthy test persons values of about 8 CTA units per ml of urine were found."}, "bovine trypsin [2]": {"target": "T3, bovine trypsin (Bos taurus, UniProt P00760)", "T3 sequence (P00760 24-246)": "T1 sequence (P00760 24-246)", "test": "Activity of bovine trypsin at constant substrate and enzyme concentrations (Table IV)", "settings": "substrate concentration 2 × 10^-4 M; pH 8.4, ionic strength 0.30, 37° C., 405 nm", "description": "The results listed in Table IV were obtained under the following experimental conditions: In a measuring vessel 1.7 ml of tris-imidazole buffer having a pH of 8.4 and an ionic strength of 0.30 were mixed at 37° C. with 0.1 ml of an aqueous trypsin solution having a concentration of 2 NF units of trypsin per ml. To the mixture 0.2 ml of a 2×10^-3 molar solution of the substrate to be tested was added. Thereafter, the quantity of p-nitroaniline released from the substrate by the action of the trypsin was determined by measuring the change in the optical density Δ OD per minute at a wave length of 405 nm."}, "urine kallikrein": {"test_system": "urine kallikrein", "test": "Enzyme quantity splitting substrate I at 1 μmole pNA per minute (Table II), urine kallikrein", "description": "BAEE (Benzoyl-L-arginine ethyl ester)--1 BAEE unit of urine kallikrein is that quantity of enzyme which hydrolyzes 1 μmole of benzoyl-L-arginine ethyl ester per minute under standard conditions.\n(§1) In the first column of Table II are listed the quantities of the various enzymes which split substrate I at a temperature of 37° C., a pH of 8.4, an ionic strength of 0.3 and a substrate concentration of 10^-4 mole with a velocity of 1 μmole per minute. In the second column the corresponding enzyme quantity, expressed in other enzyme units, is indicated."}, "human plasmin": {"test_system": "human plasmin", "test": "Enzyme quantity splitting substrate I at 1 μmole pNA per minute (Table II), plasmin", "settings": "37° C., pH 8.4, ionic strength 0.3, substrate concentration 10^-4 mole", "description": "CU is the casein unit which is measured on casein under standard conditions.\nas §1"}, "urokinase [3]": {"target": "T2, urokinase", "test": "Enzyme quantity splitting substrate I at 1 μmole pNA per minute (Table II), urokinase", "settings": "37° C., pH 8.4, ionic strength 0.3, substrate concentration 10^-4 mole", "description": "as §1"}, "bovine trypsin [4]": {"target": "T3, bovine trypsin", "test": "Enzyme quantity splitting substrate I at 1 μmole pNA per minute (Table II), trypsin", "settings": "37° C., pH 8.4, ionic strength 0.3, substrate concentration 10^-4 mole", "description": "NF is the trypsin unit, i.e. that quantity of enzyme which causes a change in the absorption Δ OD of 0.003 per minute, measured on benzoyl-L-arginine ethyl ester under standard conditions (cf. \"The National Formulary XII\", edited by \"The American Pharmaceutical Association\", Washington, D.C., 1965, pages 417-418).\nas §1"}, "urokinase [5]": {"target": "T2, urokinase", "test": "Kinetic constants Km and vmax of substrate hydrolysis by urokinase (Lineweaver-Burk)", "settings": "per CTA unit, pH 8.4, ionic strength 0.30, 37° C.", "description": "The enzyme and the substrate are mixed in a buffer solution, and the hydrolysis reaction is followed for 2 to 30 minutes. The concentration of substate [S] is varied, whereas the enzyme concentration is kept constant. If the extinction (OD=optical density) is plotted in a co-ordinate system as a function of time, a curve is obtained the tangent of which at time zero corresponds to the ideal course of the hydrolysis. By means of this tangent the initial rate of the hydrolysis can be determined.\nIf 1/v is plotted against (1/[S]), a Lineweaver-Burk diagram (cf. \"Kurzes Lehrbuch der Biochemie\" by P. KARLSON, Georg Thieme-Verlag, Stuttgart, 1967, p. 70) is obtained from which vmax and Km can be determined graphically.\nFor the determination of the kinetic constants Km and vmax listed in Table I aqueous dilution series of the substrates with concentrations from 0.1 to 2 μmoles/ml were used. […] The value of the quantity of p-nitroaniline formed per minute is a measure for the rate of hydrolysis at a given substrate concentration. […] The kinetic constants Km and vmax were determined from the points of intersection of the curves with the abscissa and the ordinate."}, "human thrombin": {"test_system": "human thrombin", "test": "Enzyme quantity splitting substrate I at 1 μmole pNA per minute (Table II), thrombin", "description": "NIH is a unit which was standardized by the \"US National Institute of Health\".\nas §1"}, "[6]": {"settings": "37° C., pH 8.4, ionic strength 0.3, substrate concentration 10^-4 mole"}},
  "note": "Counter-ions that a name gives are not always drawn. Non-standard residues stand in square brackets, D forms with d. Residues, ends and D or L forms follow the SMILES beside them. *: point of attachment. pNA = O=[N+]([O-])c1ccc(N*)cc1; Chg = N[C@H](C(=O)O)C1CCCCC1; Cbz = O=C(OCc1ccccc1)*; Bz = O=C(c1ccccc1)*",
  "data": [
    {"smiles": "N=C(N)NCCC[C@H](NC(=O)CNC(=O)[C@@H](NC(=O)OCc1ccccc1)C1CCCCC1)C(=O)Nc1ccc([N+](=O)[O-])cc1", "note": "[Substrate X, N^α -Cbo-C.Cyclohexylglycyl-Gly-Arg-pNA.HCl] (Cbz-[Chg]-Gly-Arg-pNA)", "values": [
      {"measurement": "lowest trypsin concentration that can be determined", "setting": "trypsin", "value": "≥ 0.01", "unit": "NF unit per ml"}
    ]},
    {"smiles": "CC(C)[C@H](NC(=O)c1ccccc1)C(=O)NCC(=O)N[C@@H](CCCNC(=N)N)C(=O)Nc1ccc([N+](=O)[O-])cc1", "note": "[Substrate I, N^α -Bz-Val-Gly-Arg-pNA.HCl] (Bz-Val-Gly-Arg-pNA)", "values": [
      {"measurement": "range of urokinase concentrations that can be determined accurately", "setting": "urokinase [1]", "value": "1 to 10", "unit": "CTA/ml"},
      {"measurement": "Quantity in nanomoles of p-nitroaniline enzymatically released from the substrate by 1 NF unit of trypsin in 1 minute", "setting": "bovine trypsin [2]", "value": "20,9 nanomoles"},
      {"measurement": "enzyme quantity releasing 1 μmole of pNA per minute from substrate I, in corresponding other units", "setting": "urine kallikrein; [6]", "value": 1688, "unit": "BAEE"},
      {"measurement": "splitting by kallikrein present in urine (in words)", "setting": "urine kallikrein; conclusion from Table II", "value": "split but little"},
      {"measurement": "enzyme quantity releasing 1 μmole of pNA per minute from substrate I, in corresponding other units", "setting": "human plasmin", "value": 6850, "unit": "CU"},
      {"measurement": "enzyme quantity releasing 1 μmole of pNA per minute from substrate I, in corresponding other units", "setting": "urokinase [3]", "value": 20250, "unit": "CTA"},
      {"measurement": "enzyme quantity releasing 1 μmole of pNA per minute from substrate I, in corresponding other units", "setting": "bovine trypsin [4]", "value": 36.6, "unit": "NF"},
      {"measurement": "Vmax", "setting": "urokinase [5]", "value": "7.27 × 10^-5 μmole/min. CTA"},
      {"measurement": "enzyme quantity releasing 1 μmole of pNA per minute from substrate I, in corresponding other units", "setting": "human thrombin; [6]", "value": 2174, "unit": "NIH"},
      {"measurement": "splitting by thrombin (in words)", "setting": "human thrombin; conclusion from Table II", "value": "split very little and unspecifically"}
    ]}
  ]
}
